From paper PMC5647257 (Bioorganic & medicinal chemistry letters, 2017)

Target: HIV-1 protease (Human immunodeficiency virus type 1 group M subtype B, UniProt P04585)
Test: HIV-1 protease inhibitory potency, assay protocol of Toth and Marshall
Assay type: biochemical
Conditions: compared with 13-membered inhibitors 5i and 5j

Compound: COc1ccc2c(c1)COC/C=C\CCCCCN(C[C@@H](O)[C@H](Cc1ccccc1)NC(=O)O[C@H]1CO[C@H]3OCC[C@H]31)S2(=O)=O [5k]
- fold reduction of enzyme inhibitory activity over inhibitors 5i and 5j: greater than 20 fold

Compound: COc1ccc2c(c1)COC/C=C/CCCCCN(C[C@@H](O)[C@H](Cc1ccccc1)NC(=O)O[C@H]1CO[C@H]3OCC[C@H]31)S2(=O)=O [5l]
- fold reduction of enzyme inhibitory activity over inhibitors 5i and 5j: greater than 20 fold
